One assay addresses CK1δ (Homo sapiens, UniProt P48730). Briefly: CK1δ kinase assay (Caliper LabChip electrophoretic separation of fluoresceinated peptide substrate and product). In kind it is biochemical. As to conditions: 200 pM CK1δ, 50 μM ATP, 1.5 μM peptide, 22 hours at room temperature. The gist of the method:
(§1)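 Reactions ran 22 hours at room temperature and were stopped with EDTA. Phosphorylated product and unphosphorylated substrate were then separated electrophoretically. Compounds were tested at eleven concentrations, and IC50 values came from non-linear regression.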

The target in a further assay is CK1ε (Homo sapiens, UniProt P49674). Briefly: CK1ε kinase assay (Caliper LabChip electrophoretic separation of fluoresceinated peptide substrate and product). As to conditions: 200 pM CK1ε, 50 μM ATP, 1.5 μM peptide, 22 hours at room temperature. In kind it is biochemical. The gist of the method: as §1
CK1ε, sequence (P49674 whole entry): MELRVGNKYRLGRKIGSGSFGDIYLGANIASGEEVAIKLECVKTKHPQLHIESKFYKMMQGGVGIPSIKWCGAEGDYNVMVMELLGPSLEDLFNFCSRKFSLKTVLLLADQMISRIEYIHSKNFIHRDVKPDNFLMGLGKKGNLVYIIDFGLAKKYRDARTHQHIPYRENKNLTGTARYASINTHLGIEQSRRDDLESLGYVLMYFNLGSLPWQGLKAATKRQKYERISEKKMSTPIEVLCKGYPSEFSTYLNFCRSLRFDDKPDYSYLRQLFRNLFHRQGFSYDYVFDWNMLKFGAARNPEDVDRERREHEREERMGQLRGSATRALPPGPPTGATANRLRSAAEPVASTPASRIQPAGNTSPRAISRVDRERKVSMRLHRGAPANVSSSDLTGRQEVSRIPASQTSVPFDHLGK

Where two headings read alike, the source gives them in different places.

Consider 26 molecules from patent US9273058B2 (BRISTOL-MYERS SQUIBB COMPANY, priority 2013, dated 2016).

CK1δ, sequence (P48730 whole entry): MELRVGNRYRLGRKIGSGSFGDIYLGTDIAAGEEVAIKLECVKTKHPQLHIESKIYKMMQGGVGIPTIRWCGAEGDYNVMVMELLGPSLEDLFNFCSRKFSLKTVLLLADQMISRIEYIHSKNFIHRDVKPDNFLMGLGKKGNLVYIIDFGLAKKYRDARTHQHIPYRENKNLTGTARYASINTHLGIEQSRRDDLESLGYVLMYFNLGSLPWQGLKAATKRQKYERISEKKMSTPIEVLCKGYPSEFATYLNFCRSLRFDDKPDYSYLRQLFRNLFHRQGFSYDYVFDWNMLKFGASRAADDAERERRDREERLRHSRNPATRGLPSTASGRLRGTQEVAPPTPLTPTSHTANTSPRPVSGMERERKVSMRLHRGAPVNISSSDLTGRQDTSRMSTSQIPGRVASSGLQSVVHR

For `CC(C)(O)[C@H]1CN(C(=O)NC2CC(F)(F)C2)Cc2c(C(N)=O)c(-c3ccc(F)c(Cl)c3)nn21` [Compound A20, (R)-2-(3-Chloro-4-fluorophenyl)-N^5-(3,3 difluorocyclobutyl)-7-(2-hydroxypropan-2-yl)-6,7-dihydropyrazolo[1,5-a] pyrazine-3,5(4H)-dicarboxamide], the IC50 on CK1δ (read-out: CK1δ IC50 range) and at CK1ε (read-out: CK1ε IC50 range) was 0.01 to 10 nM in each case.

For the molecule `CC1(NC(=O)N2CCn3nc(-c4ccc(F)c(Cl)c4)c(C(N)=O)c3C2)CC(C(F)F)C1` (single isomer, unassigned) [Compound 259, 2-(3-Chloro-4-fluorophenyl)-N^5-(3-(difluoromethyl)-1-methylcyclobutyl)-6,7-dihydropyrazolo[1,5-a]pyrazine-3,5(4H)-dicarboxamide], the IC50 at CK1δ (read-out: CK1δ IC50 range) and on CK1ε (read-out: CK1ε IC50 range) was 0.01 to 10 nM throughout.

In the case of `NC(=O)c1c(-c2cccc(F)c2)nn2c1CN(C(=O)Nc1ccc(O)nc1)CC2` [Compound 88, 2-(3-Fluorophenyl)-N^5-(6-hydroxypyridin-3-yl)-6,7-dihydropyrazolo[1,5-a]pyrazine-3,5(4H)-dicarboxamide], the IC50 on CK1δ (read-out: CK1δ IC50 range) and on CK1ε (read-out: CK1ε IC50 range) was 10 to 100 nM throughout.

Turning to `CC(C)(C)NC(=O)N1Cc2c(C(N)=O)c(-c3ccc(F)c(Cl)c3)nn2C2(CC2)C1` [Compound A132, N^5-(tert-Butyl)-2′-(3-chloro-4-fluorophenyl)-4′H-spiro[cyclopropane-1,7′-pyrazolo[1,5-a]pyrazine]-3′,5′(6′H)-dicarboxamide], the IC50 on CK1δ (read-out: CK1δ IC50 range) and at CK1ε (read-out: CK1ε IC50 range) was 0.01 to 10 nM in each case.

For the molecule `CC(C)(NC(=O)N1CCn2nc(-c3ccc(Cl)c(Cl)c3)c(C(N)=O)c2C1)C1CCC(F)(F)CC1` [Compound 234, 2-(3,4-Dichlorophenyl)-N^5-(2-(4,4-difluorocyclohexyl)propan-2-yl)-6,7-dihydropyrazolo[1,5-a] pyrazine-3,5(4H)-dicarboxamide], the IC50 on CK1δ (read-out: CK1δ IC50 range) and at CK1ε (read-out: CK1ε IC50 range) was 0.01 to 10 nM throughout.

Regarding `NC(=O)c1c(-c2ccc(Cl)c(Cl)c2)nn2c1CN(C(=O)NC1(c3ccc(F)cc3)CC(F)(F)C1)CC2` [Compound 310, 2-(3,4-Dichlorophenyl)-N^5-(3,3-difluoro-1-(4-fluorophenyl)cyclobutyl)-6,7-dihydropyrazolo[1,5-a] pyrazine-3,5(4H)-dicarboxamide], the IC50 on CK1δ (read-out: CK1δ IC50 range) and on CK1ε (read-out: CK1ε IC50 range) was 0.01 to 10 nM in each case.

In the case of `CC1CC(NC(=O)N2CCn3nc(-c4ccc(F)c(Cl)c4)c(C(N)=O)c3C2)C1` (single isomer, unassigned) [Compound 247, 2-(3-Chloro-4-fluorophenyl)-N^5-(3-methylcyclobutyl)-6,7-dihydropyrazolo[1,5-a]pyrazine-3,5(4H)-dicarboxamide], the IC50 at CK1δ (read-out: CK1δ IC50 range) and at CK1ε (read-out: CK1ε IC50 range) was 0.01 to 10 nM each time.

For the molecule `CC(C)(C)NC(=O)N1CCn2nc(-c3cncc4ccccc34)c(C(N)=O)c2C1` [Compound 133, N^5-(tert-Butyl)-2-(isoquinolin-4-yl)-6,7-dihydropyrazolo[1,5-a] pyrazine-3,5(4H)-dicarboxamide], the IC50 at CK1δ (read-out: CK1δ IC50 range) and on CK1ε (read-out: CK1ε IC50 range) was 100 to 2000 nM in each case.

Regarding `CC(C)(C)NC(=O)N1Cc2c(C(N)=O)c(-c3ccc(Cl)c(Cl)c3)nn2C(C(F)F)C1` (stereo not drawn) [Compound A31, N^5-(tert-Butyl)-2-(3,4-dichlorophenyl)-7-(difluoromethyl)-6,7-dihydropyrazolo[1,5-a]pyrazine-3,5(4H)-dicarboxamide], the IC50 on CK1δ (read-out: CK1δ IC50 range) and at CK1ε (read-out: CK1ε IC50 range) was 10 to 100 nM in each case.

Turning to `CC1CC(NC(=O)N2CCn3nc(-c4ccc(Cl)c(Cl)c4)c(C(N)=O)c3C2)C1` (single isomer, unassigned) [Compound 248, 2-(3,4-Dichlorophenyl)-N^5-(3-methylcyclobutyl)-6,7-dihydropyrazolo[1,5-a]pyrazine-3,5(4H)-dicarboxamide], the IC50 on CK1δ (read-out: CK1δ) was 1.5 nM; at CK1δ (read-out: CK1δ IC50 range), 0.01 to 10 nM; on CK1ε (read-out: CK1ε), 0.4 nM; at CK1ε (read-out: CK1ε IC50 range), 0.01 to 10 nM.

As to `CC(C)(NC(=O)N1CCn2nc(-c3cccc(Cl)c3)c(C(N)=O)c2C1)C1CCC(F)(F)CC1` [Compound 233, 2-(3-Chlorophenyl)-N^5-(2-(4,4-difluorocyclohexyl)propan-2-yl)-6,7-dihydropyrazolo[1,5-a] pyrazine-3,5(4H)-dicarboxamide], the IC50 at CK1δ (read-out: CK1δ IC50 range) and at CK1ε (read-out: CK1ε IC50 range) was 0.01 to 10 nM each time.

In the case of `CC(C)(C)NC(=O)N1Cc2c(C(N)=O)c(-c3ccc(F)c(Cl)c3)nn2C(C(C)(C)C)C1` (single isomer, unassigned) [Compound A117, N^5-7-Di-tert-butyl-2-(3-chloro-4-fluorophenyl)-6,7-dihydropyrazolo[1,5-a]pyrazine-3,5(4H)-dicarboxamide], the IC50 lay within 100 to 2000 nM on CK1δ (read-out: CK1δ IC50 range) and 10 to 100 nM at CK1ε (read-out: CK1ε IC50 range).

On to `COc1ccc([C@H]2C[C@@H](NC(=O)N3CCn4nc(-c5ccc(F)c(Cl)c5)c(C(N)=O)c4C3)C2)cc1` [Compound 279, 2-(3-Chloro-4-fluorophenyl)-N^5-((1s,3s)-3-(4-methoxyphenyl)cyclobutyl)-6,7-dihydropyrazolo[1,5-a]pyrazine-3,5(4H)-dicarboxamide], for which the IC50 on CK1δ (read-out: CK1δ IC50 range) and on CK1ε (read-out: CK1ε IC50 range) was 0.01 to 10 nM throughout.

Take `CC(C)(NC(=O)N1CCn2nc(-c3ccc(F)c(Cl)c3)c(C(N)=O)c2C1)c1ccc(C#N)cc1` [Compound 187, 2-(3-Chloro-4-fluorophenyl)-N^5-(2-(4-cyanophenyl)propan-2-yl)-6,7-dihydropyrazolo [1,5-a]pyrazine-3,5(4H)-dicarboxamide]: the IC50 at CK1δ (read-out: CK1δ IC50 range) and on CK1ε (read-out: CK1ε IC50 range) was 0.01 to 10 nM in each case.

Take `NC(=O)c1c(-c2ccc(F)c(Cl)c2)nn2c1CN(C(=O)NC1(C(F)F)CCC1)CC2` [Compound 235, 2-(3-Chloro-4-fluorophenyl)-N^5-(1-(difluoromethyl)cyclobutyl)-6,7-dihydro pyrazolo[1,5-a]pyrazine-3,5(4H)-dicarboxamide]: the IC50 on CK1δ (read-out: CK1δ IC50 range) and at CK1ε (read-out: CK1ε IC50 range) was 0.01 to 10 nM in each case.

As to `CC(C)(C)NC(=O)N1Cc2c(C(N)=O)c(-c3ccc(F)c(Cl)c3)nn2C(C(F)(F)F)C1` (single isomer, unassigned) [Compound A127, N^5-(tert-Butyl)-2-(3-chloro-4-fluorophenyl)-7-(trifluoromethyl)-6,7-dihydropyrazolo[1,5-a]pyrazine-3,5(4H)-dicarboxamide], the IC50 on CK1δ (read-out: CK1δ IC50 range) lay in the range of 100 to 2000 nM; at CK1ε (read-out: CK1ε IC50 range) it was 10 to 100 nM.

In the case of `NC(=O)c1c(-c2cccc(Cl)c2)nn2c1CN(C(=O)N[C@H]1C[C@@H]3[C@H](C1)C3(F)F)CC2` [Compound 184, 2-(3-Chlorophenyl)-N^5-((1R,3r,5S)-6,6-difluorobicyclo[3.1.0]hexan-3-yl)-6,7-dihydropyrazolo[1,5-a]pyrazine-3,5(4H)-dicarboxamide], the IC50 at CK1δ (read-out: CK1δ IC50 range) and on CK1ε (read-out: CK1ε IC50 range) was 0.01 to 10 nM throughout.

On to `CS(=O)(=O)[C@H]1C[C@@H](NC(=O)N2CCn3nc(-c4ccc(F)c(Cl)c4)c(C(N)=O)c3C2)C1` [Compound 272, 2-(3-Chloro-4-fluorophenyl)-N^5-((1s,3s)-3-(methylsulfonyl)cyclobutyl)-6,7-dihydropyrazolo[1,5-a]pyrazine-3,5(4H)-dicarboxamide], for which the IC50 on CK1δ (read-out: CK1δ IC50 range) and at CK1ε (read-out: CK1ε IC50 range) was 0.01 to 10 nM throughout.

Consider `NC(=O)c1c(-c2ccc(Cl)c(Cl)c2)nn2c1CN(C(=O)NC1(COC(F)F)CCC1)CC2` [Compound 224, 2-(3,4-Dichlorophenyl)-N^5-(1-((difluoromethoxy)methyl)cyclobutyl)-6,7-dihydropyrazolo[1,5-a] pyrazine-3,5(4H)-dicarboxamide], for which the IC50 on CK1δ (read-out: CK1δ IC50 range) and at CK1ε (read-out: CK1ε IC50 range) was 0.01 to 10 nM in each case.

Take `NC(=O)c1c(-c2cccc(Cl)c2)nn2c1CN(C(=O)NC1(C(F)(F)F)CC1)CC2` [Compound A40, 2-(3-Chlorophenyl)-N^5-(1-(trifluoromethyl)cyclopropyl)-6,7-dihydropyrazolo[1,5-a]pyrazine-3,5(4H)-dicarboxamide]: the IC50 on CK1δ (read-out: CK1δ IC50 range) and at CK1ε (read-out: CK1ε IC50 range) was 0.01 to 10 nM in each case.

Consider `CC(C)(C)NC(=O)N1Cc2c(C(N)=O)c(-c3ccc(F)c(Cl)c3)nn2C(CF)(CF)C1` [Compound A136], for which the IC50 on CK1δ (read-out: CK1δ IC50 range) and at CK1ε (read-out: CK1ε IC50 range) was 0.01 to 10 nM throughout.

On to `CC(C)(NC(=O)N1CCn2nc(-c3ccc(F)c(Cl)c3)c(C(N)=O)c2C1)C(=O)NC1CC1` [Compound 213, 2-(3-Chloro-4-fluorophenyl)-N^5-(1-(cyclopropylamino)-2-methyl-1-oxopropan-2-yl)-6,7-dihydropyrazolo[1,5-a]pyrazine-3,5(4H)-dicarboxamide], for which the IC50 on CK1δ (read-out: CK1δ IC50 range) and on CK1ε (read-out: CK1ε IC50 range) was 10 to 100 nM each time.

Turning to `NC(=O)c1c(-c2cccc(Cl)c2)nn2c1CN(C(=O)NC13CCC(c4ccccc4)(CC1)CC3)CC2` [Compound A83, 2-(3-Chlorophenyl)-N^5-(4-phenylbicyclo[2.2.2]octan-1-yl)-6,7-dihydropyrazolo[1,5-a]pyrazine-3,5(4H)-dicarboxamide], the IC50 at CK1δ (read-out: CK1δ IC50 range) and on CK1ε (read-out: CK1ε IC50 range) was 0.01 to 10 nM throughout.

As to `NC(=O)c1c(-c2ccc(Cl)c(Cl)c2)nn2c1CN(C(=O)N[C@H]1C[C@H](OC(F)(F)F)C1)CC2` [compound 265], the IC50 at CK1δ (read-out: CK1δ IC50 range) and at CK1ε (read-out: CK1ε IC50 range) was 0.01 to 10 nM in each case.

Take `CC(C)(C)NC(=O)N1Cc2c(C(N)=O)c(-c3cccc(Cl)c3)nn2C(CF)C1` (stereo not drawn) [Compound A5, N^5-(tert-butyl)-2-(3-chlorophenyl)-7-(fluoromethyl)-6,7-dihydropyrazolo[1,5-a] pyrazine-3,5(4H)-dicarboxamide]: the IC50 on CK1δ (read-out: CK1δ IC50 range) and on CK1ε (read-out: CK1ε IC50 range) was 0.01 to 10 nM throughout.

With `NC(=O)c1c(-c2cccc(F)c2)nn2c1CN(C(=O)Nc1cccc3ccccc13)CC2` [Compound 52, 2-(3-Fluorophenyl)-N^5-(naphthalen-1-yl)-6,7-dihydropyrazolo[1,5-a]pyrazine-3,5(4H)-dicarboxamide], the IC50 on CK1δ (read-out: CK1δ IC50 range) and at CK1ε (read-out: CK1ε IC50 range) was 10 to 100 nM each time.
